Data reported in the supplement of paper PMC10307832.

Tests used:
Test in all cases: relative viability (nuclei count vs DMSO), 5 days (fraction); higher = more cells survive
[1] = system: EMC-BAC-2
Summary of the method: (§1)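 Lung cancer cell lines, seeded in 1536-well plates, were treated the following day by pin tool with a single drug or with five library-drug doses (not always all listed) in √10 steps on top of a fixed anchor-drug dose. Cells were fixed and nuclei stained in one step after 5 days, and nuclei were counted. Relative viability is the nuclei count for treated wells divided by that for vehicle wells, reported as medians of duplicate plates.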

[2] = system: NCI-H358
Summary of the method: as §1

[3] = system: CAL-12T
Summary of the method: as §1

[4] = system: NCI-H1975
Summary of the method: as §1

[5] = system: NCI-H3122
Summary of the method: as §1

[6] = system: NCI-H1993
Summary of the method: as §1

[7] = system: HOP-62
Summary of the method: as §1

[8] = system: NCI-H1666
Summary of the method: as §1

[9] = system: HCC-78
Summary of the method: as §1

[10] = system: NCI-H322M
Summary of the method: as §1

[11] = system: UMC-11
Summary of the method: as §1

[12] = system: LXF-289
Summary of the method: as §1

[13] = system: EPLC-272H
Summary of the method: as §1

[14] = system: NCI-H2126
Summary of the method: as §1

[15] = system: NCI-H2085
Summary of the method: as §1

[16] = system: COR-L 105
Summary of the method: as §1

[17] = system: NCI-H1755
Summary of the method: as §1

[18] = system: ChaGo-K-1
Summary of the method: as §1

[19] = system: ABC-1
Summary of the method: as §1

[20] = system: NCI-H2023
Summary of the method: as §1

[21] = system: NCI-H441
Summary of the method: as §1

[22] = system: NCI-H1915
Summary of the method: as §1

[23] = system: HCC-15
Summary of the method: as §1

**Q.** What does the source list for `CC(C)Oc1cc(Nc2nc(N[C@@H](C)c3ccc(F)cn3)ncc2Cl)n[nH]1` [AZ23] + C[C@@H](Oc1cc(-c2cnn(C3CCNCC3)c2)cnc1N)c1c(Cl)ccc(F)c1Cl [Crizotinib] (partner 1 µM)?
**A.** relative viability ([1]; first compound 0.01 µM): 0.804; relative viability ([1]; first compound 0.03162 µM): 0.817; relative viability ([1]; first compound 0.3162 µM): 0.777; relative viability ([2]; first compound 0.01 µM): 0.522; relative viability ([2]; first compound 0.03162 µM): 0.781; relative viability ([2]; first compound 0.3162 µM): 0.654; relative viability ([3]; first compound 0.01 µM): 0.324; relative viability ([3]; first compound 0.03162 µM): 0.759; relative viability ([3]; first compound 0.3162 µM): 0.583; relative viability ([4]; first compound 0.01 µM): 1.44; relative viability ([4]; first compound 0.03162 µM): 0.953; relative viability ([4]; first compound 0.3162 µM): 1.09; relative viability ([5]; first compound 0.01 µM): 0.28; relative viability ([5]; first compound 0.03162 µM): 0.262; relative viability ([5]; first compound 0.3162 µM): 0.305; relative viability ([6]; first compound 0.01 µM): 0.857; relative viability ([6]; first compound 0.3162 µM): 0.804; relative viability ([7]; first compound 0.01 µM): 0.992; relative viability ([7]; first compound 0.03162 µM): 0.912; relative viability ([7]; first compound 0.3162 µM): 1.08; relative viability ([8]; first compound 0.01 µM): 1.03; relative viability ([8]; first compound 0.03162 µM): 0.978; relative viability ([8]; first compound 0.3162 µM): 1.02; relative viability ([9]; first compound 0.01 µM): 0.318; relative viability ([9]; first compound 0.03162 µM): 0.39; relative viability ([9]; first compound 0.3162 µM): 0.336; relative viability ([10]; first compound 0.01 µM): 1.08; relative viability ([10]; first compound 0.03162 µM): 1.14; relative viability ([10]; first compound 0.3162 µM): 0.939; relative viability ([11]; first compound 0.01 µM): 0.552; relative viability ([11]; first compound 0.03162 µM): 0.73; relative viability ([11]; first compound 0.3162 µM): 0.555; relative viability ([12]; first compound 0.01 µM): 0.862; relative viability ([12]; first compound 0.03162 µM): 0.859; relative viability ([12]; first compound 0.3162 µM): 0.79; relative viability ([13]; first compound 0.01 µM): 1.19; relative viability ([13]; first compound 0.03162 µM): 1.19; relative viability ([14]; first compound 0.01 µM): 1.24; relative viability ([14]; first compound 0.03162 µM): 1.11; relative viability ([14]; first compound 0.3162 µM): 1.05; relative viability ([15]; first compound 0.01 µM): 1.03; relative viability ([15]; first compound 0.03162 µM): 0.94; relative viability ([15]; first compound 0.3162 µM): 0.838; relative viability ([16]; first compound 0.01 µM): 0.618; relative viability ([16]; first compound 0.03162 µM): 0.825; relative viability ([16]; first compound 0.3162 µM): 0.786; relative viability ([17]; first compound 0.01 µM): 1.1; relative viability ([17]; first compound 0.03162 µM): 1.01; relative viability ([17]; first compound 0.3162 µM): 0.964; relative viability ([18]; first compound 0.01 µM): 1.37; relative viability ([18]; first compound 0.03162 µM): 1.08; relative viability ([18]; first compound 0.3162 µM): 1.24; relative viability ([19]; first compound 0.01 µM): 0.752; relative viability ([19]; first compound 0.03162 µM): 1.27; relative viability ([19]; first compound 0.3162 µM): 1.25; relative viability ([20]; first compound 0.03162 µM): 0.825; relative viability ([20]; first compound 0.3162 µM): 0.616; relative viability ([21]; first compound 0.01 µM): 1.15; relative viability ([21]; first compound 0.03162 µM): 0.914; relative viability ([21]; first compound 0.3162 µM): 0.774; relative viability ([22]; first compound 0.01 µM): 1.28; relative viability ([22]; first compound 0.03162 µM): 0.936; relative viability ([22]; first compound 0.3162 µM): 0.979; relative viability ([23]; first compound 0.01 µM): 1.1; relative viability ([23]; first compound 0.03162 µM): 0.881; relative viability ([23]; first compound 0.3162 µM): 0.884
